{"source": "patent US9170257B2", "about": "(priority 2012, dated 2015)", "key": {"[1]": {"experiment": "Tissue distribution of curcumin and THC at necropsy 15 minutes post-infusion", "design": "species or system Beagle dogs", "conditions": "both sexes, beagle, dog, in vivo, 10 mg/kg; for Kp at 8 h: 8 hr infusion", "description": "The test article will be administered to 8 Beagle dogs by intravenous infusion over two hours (Part A) or eight hours (Part B) as shown in Table 6.\nMultiple samples of tissue weighing approximately 1 gram were removed and snap frozen in the presence or absence of phosphoric acid (H3PO4). For all tissue samples, the levels of curcumin and THC were determined using a method developed by the Bioanalytical Department at Nucro-Technics. […] Values that were below the limit of quantification were assigned a value of 0. […] Tissue distribution data was analyzed using, unless stated, the data from 4 dogs and are presented as the mean±standard error (S.E.)."}, "[2]": {"experiment": "Bench stability in Phase 1 human plasma samples", "type": "in vitro ADME", "conditions": "human plasma with Na-phosphate, room temperature, a couple of hours", "procedure": "After the addition of 50 μl 5% H3PO4 to 950 ml plasma the pH was 4.4."}}, "note": "Where two headings read alike, the source gives them in different places.", "data": [{"smiles": "COc1cc(CCC(=O)CC(=O)CCc2ccc(O)c(OC)c2)ccc1O", "note": "[THC, tetrahydrocurcumin]", "values": [{"measurement": "Kp at 8 h", "setting": "[1]; H3PO4 stabilized, read-out: Kp [tissue]/[plasma], Urinary Bladder", "result": 0.0106}, {"measurement": "concentration at 15 min", "setting": "[1]; Average tissue concentration, Intestinal wall, Eight hour infusion, H3PO4 stabilized", "result": 0.09, "unit": "ng/g"}, {"measurement": "concentration at 15 min", "setting": "[1]; Average tissue concentration, Intestinal wall, Two hour infusion, H3PO4 stabilized", "result": 2.11, "unit": "ng/g"}, {"measurement": "concentration at 15 min", "setting": "[1]; Eight hour infusion, H3PO4 stabilized, read-out: Average tissue concentration, Bladder", "result": 1.11, "unit": "ng/g"}, {"measurement": "concentration at 15 min", "setting": "[1]; Eight hour infusion, H3PO4 stabilized, read-out: Average tissue concentration, Brainstem", "result": 3.02, "unit": "ng/g"}, {"measurement": "concentration at 15 min", "setting": "[1]; Eight hour infusion, H3PO4 stabilized, read-out: Average tissue concentration, Cortex", "result": 0.49, "unit": "ng/g"}, {"measurement": "concentration at 15 min", "setting": "[1]; Eight hour infusion, H3PO4 stabilized, read-out: Average tissue concentration, Heart", "result": 0.03, "unit": "ng/g"}, {"measurement": "concentration at 15 min", "setting": "[1]; Eight hour infusion, H3PO4 stabilized, read-out: Average tissue concentration, Hippocampus", "result": 1.12, "unit": "ng/g"}, {"measurement": "concentration at 15 min", "setting": "[1]; Eight hour infusion, H3PO4 stabilized, read-out: Average tissue concentration, Kidney", "result": 2.03, "unit": "ng/g"}, {"measurement": "concentration at 15 min", "setting": "[1]; Eight hour infusion, H3PO4 stabilized, read-out: Average tissue concentration, Liver", "result": 2.24, "unit": "ng/g"}, {"measurement": "concentration at 15 min", "setting": "[1]; Eight hour infusion, H3PO4 stabilized, read-out: Average tissue concentration, Lung", "result": 6.36, "unit": "ng/g"}, {"measurement": "concentration at 15 min", "setting": "[1]; Eight hour infusion, H3PO4 stabilized, read-out: Average tissue concentration, Muscle", "result": 2.42, "unit": "ng/g"}, {"measurement": "concentration at 15 min", "setting": "[1]; Eight hour infusion, H3PO4 stabilized, read-out: Average tissue concentration, Pancreas", "result": 1.34, "unit": "ng/g"}, {"measurement": "concentration at 15 min", "setting": "[1]; Eight hour infusion, H3PO4 stabilized, read-out: Average tissue concentration, Spleen", "result": 0.42, "unit": "ng/g"}, {"measurement": "concentration at 15 min", "setting": "[1]; Eight hour infusion, H3PO4 stabilized, read-out: Average tissue concentration, Striatum", "result": 3.13, "unit": "ng/g"}, {"measurement": "Kp at 2 h", "setting": "[1]; Kp [tissue]/[plasma], Intestinal Wall, 2 hr infusion, H3PO4 stabilized", "result": 0.0003}, {"measurement": "Kp at 8 h", "setting": "[1]; Kp [tissue]/[plasma], Intestinal Wall, H3PO4 stabilized", "result": 0.002}, {"measurement": "concentration at 15 min", "setting": "[1]; Table 14, 2 hour infusion, +H3PO4, read-out: Tissue analysis, Brainstem", "result": 10.6, "unit": "ng/g"}, {"measurement": "concentration at 15 min", "setting": "[1]; Table 14, 2 hour infusion, +H3PO4, read-out: Tissue analysis, Cortex", "result": 3.08, "unit": "ng/g"}, {"measurement": "concentration at 15 min", "setting": "[1]; Table 14, 2 hour infusion, +H3PO4, read-out: Tissue analysis, Hippocampus", "result": 6.46, "unit": "ng/g"}, {"measurement": "concentration at 15 min", "setting": "[1]; Table 14, 2 hour infusion, +H3PO4, read-out: Tissue analysis, Liver", "result": 4.58, "unit": "ng/g"}, {"measurement": "concentration at 15 min", "setting": "[1]; Table 14, 2 hour infusion, +H3PO4, read-out: Tissue analysis, Lung", "result": 9.37, "unit": "ng/g"}, {"measurement": "concentration at 15 min", "setting": "[1]; Table 14, 2 hour infusion, +H3PO4, read-out: Tissue analysis, Pancreas", "result": 0.91, "unit": "ng/g"}, {"measurement": "concentration at 15 min", "setting": "[1]; Table 14, 2 hour infusion, +H3PO4, read-out: Tissue analysis, Spleen", "result": 1.6, "unit": "ng/g"}, {"measurement": "concentration at 15 min", "setting": "[1]; Table 14, 2 hour infusion, +H3PO4, read-out: Tissue analysis, Striatum", "result": 11.1, "unit": "ng/g"}, {"measurement": "concentration at 15 min", "setting": "[1]; Table 14, 2 hour infusion, −H3PO4, read-out: Tissue analysis, Brainstem", "result": 2.33, "unit": "ng/g"}, {"measurement": "concentration at 15 min", "setting": "[1]; Table 14, 2 hour infusion, −H3PO4, read-out: Tissue analysis, Cortex", "result": 0.67, "unit": "ng/g"}, {"measurement": "concentration at 15 min", "setting": "[1]; Table 14, 2 hour infusion, −H3PO4, read-out: Tissue analysis, Hippocampus", "result": 0.75, "unit": "ng/g"}, {"measurement": "concentration at 15 min", "setting": "[1]; Table 14, 2 hour infusion, −H3PO4, read-out: Tissue analysis, Liver", "result": 2.41, "unit": "ng/g"}, {"measurement": "concentration at 15 min", "setting": "[1]; Table 14, 2 hour infusion, −H3PO4, read-out: Tissue analysis, Lung", "result": 17.7, "unit": "ng/g"}, {"measurement": "concentration at 15 min", "setting": "[1]; Table 14, 2 hour infusion, −H3PO4, read-out: Tissue analysis, Pancreas", "result": 2.01, "unit": "ng/g"}, {"measurement": "concentration at 15 min", "setting": "[1]; Table 14, 2 hour infusion, −H3PO4, read-out: Tissue analysis, Spleen", "result": 1.35, "unit": "ng/g"}, {"measurement": "concentration at 15 min", "setting": "[1]; Table 14, 2 hour infusion, −H3PO4, read-out: Tissue analysis, Striatum", "result": 6.21, "unit": "ng/g"}, {"measurement": "concentration at 15 min", "setting": "[1]; Table 15, 2 hour infusion, +H3PO4, read-out: Tissue analysis, Brainstem", "result": 3.02, "unit": "ng/g"}, {"measurement": "concentration at 15 min", "setting": "[1]; Table 15, 2 hour infusion, +H3PO4, read-out: Tissue analysis, Cortex", "result": 0.49, "unit": "ng/g"}, {"measurement": "concentration at 15 min", "setting": "[1]; Table 15, 2 hour infusion, +H3PO4, read-out: Tissue analysis, Hippocampus", "result": 1.12, "unit": "ng/g"}, {"measurement": "concentration at 15 min post-infusion", "setting": "[1]; Table 15, 2 hour infusion, +H3PO4, read-out: Tissue analysis, Liver", "result": 2.24, "unit": "ng/g"}, {"measurement": "concentration at 15 min", "setting": "[1]; Table 15, 2 hour infusion, +H3PO4, read-out: Tissue analysis, Lung", "result": 6.36, "unit": "ng/g"}, {"measurement": "concentration at 15 min", "setting": "[1]; Table 15, 2 hour infusion, +H3PO4, read-out: Tissue analysis, Pancreas", "result": 1.34, "unit": "ng/g"}, {"measurement": "concentration at 15 min post-infusion", "setting": "[1]; Table 15, 2 hour infusion, +H3PO4, read-out: Tissue analysis, Spleen", "result": 0.42, "unit": "ng/g"}, {"measurement": "concentration at 15 min", "setting": "[1]; Table 15, 2 hour infusion, +H3PO4, read-out: Tissue analysis, Striatum", "result": 3.13, "unit": "ng/g"}, {"measurement": "concentration at 15 min", "setting": "[1]; Table 15, 2 hour infusion, −H3PO4, read-out: Tissue analysis, Brainstem", "result": 0.83, "unit": "ng/g"}, {"measurement": "concentration at 15 min", "setting": "[1]; Table 15, 2 hour infusion, −H3PO4, read-out: Tissue analysis, Cortex", "result": 0.12, "unit": "ng/g"}, {"measurement": "concentration at 15 min", "setting": "[1]; Table 15, 2 hour infusion, −H3PO4, read-out: Tissue analysis, Hippocampus", "result": 0.01, "unit": "ng/g"}, {"measurement": "concentration at 15 min post-infusion", "setting": "[1]; Table 15, 2 hour infusion, −H3PO4, read-out: Tissue analysis, Liver", "result": 2.63, "unit": "ng/g"}, {"measurement": "concentration at 15 min", "setting": "[1]; Table 15, 2 hour infusion, −H3PO4, read-out: Tissue analysis, Lung", "result": 10.8, "unit": "ng/g"}, {"measurement": "concentration at 15 min", "setting": "[1]; Table 15, 2 hour infusion, −H3PO4, read-out: Tissue analysis, Pancreas", "result": 0.33, "unit": "ng/g"}, {"measurement": "concentration at 15 min post-infusion", "setting": "[1]; Table 15, 2 hour infusion, −H3PO4, read-out: Tissue analysis, Spleen", "result": 0.32, "unit": "ng/g"}, {"measurement": "concentration at 15 min", "setting": "[1]; Table 15, 2 hour infusion, −H3PO4, read-out: Tissue analysis, Striatum", "result": 1.12, "unit": "ng/g"}, {"measurement": "concentration at 15 min", "setting": "[1]; Tissue level, Intestinal Wall, 2 hour infusion, No H3PO4", "result": 0.73, "unit": "ng/g"}, {"measurement": "concentration at 15 min", "setting": "[1]; Tissue level, Intestinal Wall, 2 hour infusion, Plus H3PO4", "result": 2.12, "unit": "ng/g"}, {"measurement": "concentration at 15 min", "setting": "[1]; Tissue level, Intestinal Wall, 8 hour infusion, No H3PO4", "result": 0.31, "unit": "ng/g"}, {"measurement": "concentration at 15 min", "setting": "[1]; Tissue level, Intestinal Wall, 8 hour infusion, Plus H3PO4", "result": 0.21, "unit": "ng/g"}, {"measurement": "concentration at 15 min", "setting": "[1]; Two hour infusion, H3PO4 stabilized, read-out: Average tissue concentration, Bladder", "result": 2.25, "unit": "ng/g"}, {"measurement": "concentration at 15 min", "setting": "[1]; Two hour infusion, H3PO4 stabilized, read-out: Average tissue concentration, Brainstem", "result": 10.6, "unit": "ng/g"}, {"measurement": "concentration at 15 min", "setting": "[1]; Two hour infusion, H3PO4 stabilized, read-out: Average tissue concentration, Cortex", "result": 3.08, "unit": "ng/g"}, {"measurement": "concentration at 15 min", "setting": "[1]; Two hour infusion, H3PO4 stabilized, read-out: Average tissue concentration, Heart", "result": 0.68, "unit": "ng/g"}, {"measurement": "concentration at 15 min", "setting": "[1]; Two hour infusion, H3PO4 stabilized, read-out: Average tissue concentration, Hippocampus", "result": 6.46, "unit": "ng/g"}, {"measurement": "concentration at 15 min", "setting": "[1]; Two hour infusion, H3PO4 stabilized, read-out: Average tissue concentration, Kidney", "result": 4.25, "unit": "ng/g"}, {"measurement": "concentration at 15 min", "setting": "[1]; Two hour infusion, H3PO4 stabilized, read-out: Average tissue concentration, Liver", "result": 4.58, "unit": "ng/g"}, {"measurement": "concentration at 15 min", "setting": "[1]; Two hour infusion, H3PO4 stabilized, read-out: Average tissue concentration, Lung", "result": 9.37, "unit": "ng/g"}, {"measurement": "concentration at 15 min", "setting": "[1]; Two hour infusion, H3PO4 stabilized, read-out: Average tissue concentration, Muscle", "result": 4.19, "unit": "ng/g"}, {"measurement": "concentration at 15 min", "setting": "[1]; Two hour infusion, H3PO4 stabilized, read-out: Average tissue concentration, Pancreas", "result": 0.91, "unit": "ng/g"}, {"measurement": "concentration at 15 min", "setting": "[1]; Two hour infusion, H3PO4 stabilized, read-out: Average tissue concentration, Spleen", "result": 1.6, "unit": "ng/g"}, {"measurement": "concentration at 15 min", "setting": "[1]; Two hour infusion, H3PO4 stabilized, read-out: Average tissue concentration, Striatum", "result": 11.1, "unit": "ng/g"}, {"measurement": "bench stability", "setting": "[2]", "result": "minimal"}]}]}
